Experimental data as given in patent US8258182B2, “Substituted 1,3-diphenylpropane derivatives, preparations and uses thereof” (Genfit, priority 2006, dated 2012).

Columns and labels:
ApoE2/E2 mice = assay: Plasma lipids in dyslipidemic ApoE2/E2 mice after per os treatment; format: in vivo, mouse; settings: 50 mpk per os, 8 days
Method: The dyslipidemic E2/E2 mouse's rates of total cholesterol, of triglycerides, and plasma free fatty acids are measured after 8 or 14 days of a per os treatment with the compounds according to the invention.
The hypolipidemic properties of the compounds according to the invention are evaluated in vivo by assaying plasma lipids and the analysis of the PPARs target genes expression in the liver after a treatment treating of the dyslipidemic E2/E2 mice with the compounds according to the invention.
The murine model used is the ApoE2/E2 mouse, a transgenic mouse having the human apolipoprotein E isoform E2 (Sullivan P M et al., 1998). In human, this apolipoprotein, a constituent of low and very low density lipoproteins (LDL-VLDL), is present in three isoforms E2, E3, and E4. The E2 form presents a mutation affecting the amino acid in position 158, which considerably weakens the affinity of this protein for LDL receptors. Accordingly, the VLDL clearance is nearly non-existent. An accumulation of low-density lipoproteins then occurs along with a mixed hyperlipidemia known as type III (elevated cholesterol and triglycerides).
The ApoE2/E2 transgenic mice were kept on a 12 hour/12 hour light/dark cycle at a constant temperature of 20±3° C. After a one week acclimatization period, the mice were weighed and divided into groups of 6 animals selected so as to render uniform the distribution of their body weights and plasma lipid rates, determined before the experiment. The tested compounds were suspended in carboxymethylcellulose (Sigma C4888) and administered by intra-gastric tube feeding once a day for 8 days (for compound 1) or 14 days (for compound 8) with the chosen doses. […] Taking of food and weight gain are recorded throughout the experiment. […]
Plasma lipid concentrations (total cholesterol and triglycerides) are measured by enzymatic doses (bioMérieux-Lyon-France) according to the provider's recommendations.
Plasma cholesterol and triglycerides rates are measured after 8 or 14 days of a per os treatment with the compounds according to the invention. […]

[1] = system: PPARs target genes (PDK4, ApoCIII, ACO) in the hepatic tissue; assay: Hepatic expression of PPAR target genes in E2/E2 mice (quantitative RT-PCR); format: in vivo, mouse; settings: 50 mpk
Method: The effectiveness of the compounds according to the invention is also evaluated by measuring, in the hepatic tissue, the expression of genes involved in lipid and/or glucids metabolism and in energy dissipation. Each level of genes expression is normalised regarding the expression level of the reference gene 36B4's. The induction factor, i.e. the ratio between the relative signal (induced by the compound according to the invention) and the average of the relative values relating to the control group is then calculated. The higher the induction factor is, the more the compound promotes hepatic gene expression. The final result is expressed as an average of the induction values obtained with each experimental group.
The PPARα agonist properties previously measured in vitro should, in the liver, lead to an overexpression of the target genes directly under the control of the PPARα: the genes we have studied in this experiment are PDK-4 (an enzyme involved in glucid metabolism), Apo CIII (an apolipoprotein involved in lipid metabolism), and Acox1 (in mice, Acox1 corresponds to the ACO gene in humans (Acyl Co-enzymeA Oxydase, an enzyme key to the fatty acid β-oxidation mechanism)). Measuring the transcriptional activity of PPARα target genes after a treatment with compounds according to the invention does therefore allow to evaluate the hypolipidemic properties of the compounds according to the invention.
The ApoE2/E2 transgenic mice were kept on a 12 hour/12 hour light/dark cycle at a constant temperature of 20±3° C. After a one week acclimatization period, the mice were weighed and divided into groups of 6 animals selected so as to render uniform the distribution of their body weights and plasma lipid rates, determined before the experiment. The tested compounds were suspended in carboxymethylcellulose (Sigma C4888) and administered by intra-gastric tube feeding once a day for 8 days (for compound 1) or 14 days (for compound 8) with the chosen doses. The animals had free access to food and water (standard diet). Taking of food and weight gain are recorded throughout the experiment. At the end of the experiment, the animals were anesthetized after a 4 hour fast, and a blood sample was taken using (EDTA) anticoagulant, then the mice were weighed and euthanized. The plasma was separated by centrifugation at 3000 rotations/minute for 20 minutes. The samples were kept at +4° C.
Liver samples were removed, frozen in liquid nitrogen, and kept at −80° C. for later analyses.
Total RNA is extracted from liver fragments by using the NucleoSpin® 96 RNA kit (Macherey Nagel, Hoerdt, France) according to the manufacturer's instructions.
1 μg of total RNA (quantified by using the Ribogreen RNA quantification kit (Molecular Probes)) is then reverse-transcripted into complementary DNA by means of a 1 hour reaction at 37° C. in a total volume of 20 μl containing a 1× buffer (Sigma), 1.5 mM of DTT, 0.18 mM of dNTPs (Promega), 200 ng of pdN6 (Amersham), 30U of RNase inhibitor (Sigma), and 1 μl of MMLV-RT (Sigma).
The PCR quantitative experiments were carried out using the MyiQ Single-Color Real-Time PCR Detection System (Biorad, Marnes-la-Coquette, France) and were performed using the iQ SYBR Green Supermix kit according to the manufacturer's recommendations, in 96-well trays in 5 μl of a diluted reverse transcription solution at a hybridation temperature of 55° C. The specific primer pairs of the genes studied were used: • PDK4: sense primer: 5′-[…]-3′ (SEQ ID NO: 1) and antisense primer 5′-[…]-3′ (SEQ ID NO: 2)) • ApoCIII: sense primer: 5′-[…]-3′ (SEQ ID NO: 3) and antisense primer 5′-[…]-3′ (SEQ ID NO: 4). • ACO: sense primer: 5′-[…]-3′ (SEQ ID NO: 5) and antisense primer: 5′-[…]-3′ (SEQ ID NO: 6)
The quantity of fluorescencet emitted is directly proportional to the quantity of cDNA present at the beginning of the reaction and amplified during the PCR. […]

CSc1ccc(C(=O)CCc2cc(C)c(OC(C)(C)C(=O)O)c(C)c2)cc1 [Compound 1, 2-[2,6-dimethyl-4-[3-[4-(methylthio)phenyl]-3-oxo-propyl]phenoxyl]-2-methylpropanoic acid]
plasma total cholesterol rates (ApoE2/E2 mice; vs control animals (FIG. 2-1)): very significantly decreased | circulating triglycerides rates (ApoE2/E2 mice; vs control animals (FIG. 2-2)): very significantly decreased | hepatic expression of the gene coding for PDK4 ([1]; 8 days (FIG. 2-4)): significant increase | hepatic expression of the gene coding for ApoCIII ([1]; 8 days (FIG. 2-5)): reduction | hepatic expression of genes coding for ACO ([1]; 8 days (FIG. 2-6)): significant augmentation
